Test results published in patent publication US20230265151A1, “GIP/GLP1 CO-AGONIST COMPOUNDS” (priority 2020, published 2023).
Like-named read-outs stand apart in the source and are kept apart here. *1 amine or outer side, *2 acyl side, *3 side chain or, on linkers, in order; H or OH if unused. Where a SMILES comes first, the peptide text is derived from it. Side-chain parts run from the residue outwards. [ ]: non-standard residue; d: D form. The star is where a group is joined. αMePhe(2-F) = C[C@](N)(Cc1ccccc1F)C(=O)O; γGlu = O=C(O)[C@H](CCC(=O)[*:2])N[*:1]; C14 diacid = O=C(O)CCCCCCCCCCCCC(=O)*; αMeY = C[C@](N)(Cc1ccc(O)cc1)C(=O)O; αMeF = C[C@](N)(Cc1ccccc1)C(=O)O; αMeL = CC(C)C[C@](C)(N)C(=O)O; Orn = NCCC[C@H](N)C(=O)O; AEEA = NCCOCCOCC(=O)O; Aib = CC(C)(N)C(=O)O

Assays:
Format in all cases: cell-based
hGIPR = target: T1, hGIPR (Homo sapiens, UniProt P48546); experiment: Functional cAMP formation (HTRF) in HEK-293 clonal cells expressing hGIPR, 0.1% bovine casein, without or with 1.0% human serum albumin; details: for EC50: geometric mean
T1 construct: expressed in transfected cells
T1 sequence (P48546 22-466): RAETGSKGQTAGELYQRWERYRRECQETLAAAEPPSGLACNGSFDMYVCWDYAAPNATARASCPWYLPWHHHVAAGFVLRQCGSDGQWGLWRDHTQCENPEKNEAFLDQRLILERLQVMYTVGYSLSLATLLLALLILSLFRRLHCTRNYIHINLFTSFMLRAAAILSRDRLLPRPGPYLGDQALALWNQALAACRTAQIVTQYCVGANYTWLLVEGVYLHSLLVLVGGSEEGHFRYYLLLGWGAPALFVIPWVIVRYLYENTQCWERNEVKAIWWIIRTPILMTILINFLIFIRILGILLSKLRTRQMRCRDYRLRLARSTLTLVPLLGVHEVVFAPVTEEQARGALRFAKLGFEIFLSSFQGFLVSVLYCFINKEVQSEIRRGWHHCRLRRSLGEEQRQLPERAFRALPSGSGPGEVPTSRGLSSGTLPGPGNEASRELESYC
Summary of the method: (§1)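 Readings of the HTRF 665/620 nm ratio, which falls as cAMP rises, were converted to nM cAMP using a standard curve after 30 min peptide exposure at 37° C.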

hGCGR = target: T2, hGCGR (Homo sapiens, UniProt P47871); experiment: Functional cAMP formation (HTRF) in HEK-293 clonal cells expressing hGCGR, 0.1% bovine casein, without or with 1.0% human serum albumin; details: geometric mean
T2 construct: expressed in transfected cells
Summary of the method: as §1

hGLP-1R = hGLP-1R (Homo sapiens, UniProt P43220); experiment: Functional cAMP formation (HTRF) in HEK-293 clonal cells expressing hGLP-1R, 0.1% bovine casein, without or with 1.0% human serum albumin; set-up: expressed in transfected cells
Summary of the method: as §1

T2 sequence (P47871 26-477): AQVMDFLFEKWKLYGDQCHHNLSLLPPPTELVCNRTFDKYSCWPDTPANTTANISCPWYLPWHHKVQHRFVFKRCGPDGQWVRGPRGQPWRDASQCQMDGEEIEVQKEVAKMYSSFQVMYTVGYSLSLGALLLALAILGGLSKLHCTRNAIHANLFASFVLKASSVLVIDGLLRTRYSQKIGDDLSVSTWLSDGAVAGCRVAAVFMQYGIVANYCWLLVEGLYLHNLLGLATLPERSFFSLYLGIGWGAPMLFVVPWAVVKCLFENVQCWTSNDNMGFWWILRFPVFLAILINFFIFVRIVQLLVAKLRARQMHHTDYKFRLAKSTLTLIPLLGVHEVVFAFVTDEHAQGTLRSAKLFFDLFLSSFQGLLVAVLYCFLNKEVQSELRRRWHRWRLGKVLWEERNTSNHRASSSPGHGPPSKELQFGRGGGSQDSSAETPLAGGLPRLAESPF
Chain of hGLP-1R (P43220 24-463): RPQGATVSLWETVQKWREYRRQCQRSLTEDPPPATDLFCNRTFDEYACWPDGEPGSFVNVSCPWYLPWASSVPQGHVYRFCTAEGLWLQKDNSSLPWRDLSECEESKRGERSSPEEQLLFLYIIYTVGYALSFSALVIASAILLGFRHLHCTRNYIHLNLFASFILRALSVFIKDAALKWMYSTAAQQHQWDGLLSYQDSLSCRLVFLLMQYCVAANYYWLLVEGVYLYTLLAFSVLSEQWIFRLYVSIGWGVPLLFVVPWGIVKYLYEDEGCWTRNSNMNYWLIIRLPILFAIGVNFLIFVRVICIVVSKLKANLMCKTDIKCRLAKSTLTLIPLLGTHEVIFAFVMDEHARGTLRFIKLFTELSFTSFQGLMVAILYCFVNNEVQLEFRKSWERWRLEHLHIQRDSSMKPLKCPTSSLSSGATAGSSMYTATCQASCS

Row | SMILES | Emax (hGIPR; HEK293, read-out: hGIPR Emax, % ± SEM, 0.1% bovine casein and 1.0% human serum albumin, 37° C., percent of maximal response to GIP(1-42)NH2) [%] | EC50 (hGIPR; hGIPR EC50, nM (SEM, n), 0.1% bovine casein and 1.0% human serum albumin, 37° C.) [nM] | EC50 (hGIPR; hGIPR EC50, nM (SEM, n), cAMP, incubated at 37° C., 0.1% bovine casein (no human serum albumin)) [nM] | EC50 (hGCGR; hGCGR EC50, nM (SEM, n), 0.1% bovine casein and 1.0% human serum albumin, 37° C.) [nM] | EC50 (hGCGR; hGCGR EC50, nM (SEM, n), cAMP, incubated at 37° C., 0.1% bovine casein (no human serum albumin)) [nM] | Emax (hGLP-1R; HEK293, read-out: hGLP-1R Emax, % ± SEM, 0.1% bovine casein and 1.0% human serum albumin, 37° C., percent of maximal response to GLP-1(7-36)NH2) [%] | Emax (hGLP-1R; HEK293, read-out: hGLP-1R Emax, % ± SEM, percent of maximal response to GLP-1(7-36)NH2, 37° C., 0.1% bovine casein, arithmetic mean) [%] | EC50 (hGLP-1R; hGLP-1R EC50, nM (SEM, n), cAMP, incubated at 37° C., 0.1% bovine casein (no human serum albumin), geometric mean) [nM] | Emax (hGIPR; HEK293, percent of maximal response to GIP(1-42)NH2, 37° C., 0.1% bovine casein, arithmetic mean, read-out: hGIPR Emax, % ± SEM) [%] | EC50 (hGIPR; cAMP, incubated at 37° C., 0.1% bovine casein (no human serum albumin), read-out: hGIPR EC50, nM (SEM, n)) [nM] | EC50 (hGCGR; cAMP, incubated at 37° C., 0.1% bovine casein (no human serum albumin), read-out: hGCGR EC50, nM (SEM, n)) [nM] | Emax (hGLP-1R; HEK293, percent of maximal response to GLP-1(7-36)NH2, 37° C., 0.1% bovine casein, arithmetic mean, read-out: hGLP-1R Emax, % ± SEM) [%]
1 | CC[C@H](C)[C@H](NC(=O)[C@H](CC(C)C)NC(=O)[C@](C)(Cc1ccc(O)cc1)NC(=O)[C@@H](CCC(=O)O)NC(=O)[C@@H](NC(=O)[C@H](Cc1ccccc1)NC(=O)[C@H](CCCCNC(=O)COCCOCCNC(=O)COCCOCCNC(=O)CC[C@H](NC(=O)CCCCCCCCCOc1ccc(C(=O)O)cc1)C(=O)O)NC(=O)C(C)(C)NC(=O)[C@H](CCC(N)=O)NC(=O)[C@H](C)NC(=O)[C@H](CCCCNC(=O)COCCOCCNC(=O)COCCOCCNC(=O)CC[C@H](NC(=O)CCCCCCCCCOc1ccc(C(=O)O)cc1)C(=O)O)NC(=O)[C@H](CCCN)NC(=O)[C@H](CC(=O)O)NC(=O)[C@H](CC(C)C)NC(=O)[C@](C)(CC(C)C)NC(=O)[C@@H](NC(=O)C(C)(C)NC(=O)[C@H](Cc1ccncc1)NC(=O)[C@H](CC(=O)O)NC(=O)[C@H](CO)NC(=O)[C@@H](NC(=O)[C@](C)(Cc1ccccc1F)NC(=O)[C@@H](NC(=O)CNC(=O)[C@H](CCC(=O)O)NC(=O)C(C)(C)NC(=O)[C@@H](N)Cc1ccc(O)cc1)[C@@H](C)O)[C@@H](C)O)[C@@H](C)CC)[C@@H](C)CC)C(=O)N[C@@H](CCC(=O)O)C(=O)NCC(=O)NCC(=O)N1CCC[C@H]1C(=O)N[C@@H](CO)C(=O)N[C@@H](CO)C(=O)NCC(=O)N[C@@H](C)C(=O)N1CCC[C@H]1C(=O)N1CCC[C@H]1C(=O)N1CCC[C@H]1C(=O)N[C@@H](CO)C(N)=O [Example 243] | 90.5 | 0.728 | 0.0154 | > 9950 | > 9950 | 114 | 93.2 | 0.86 | – | – | – | –
2 | CC[C@H](C)[C@H](NC(=O)[C@H](CCCN)NC(=O)[C@H](CC(=O)O)NC(=O)[C@H](CC(C)C)NC(=O)[C@](C)(CC(C)C)NC(=O)[C@@H](NC(=O)[C@H](CO)NC(=O)[C@H](CCCCNC(=O)COCCOCCNC(=O)COCCOCCNC(=O)CC[C@H](NC(=O)CCCCCCCCCCCCC(=O)O)C(=O)O)NC(=O)[C@H](CC(=O)O)NC(=O)[C@H](CO)NC(=O)[C@@H](NC(=O)[C@](C)(Cc1ccccc1F)NC(=O)[C@@H](NC(=O)CNC(=O)[C@H](CCC(=O)O)NC(=O)C(C)(C)NC(=O)[C@@H](N)Cc1ccc(O)cc1)[C@@H](C)O)[C@@H](C)O)[C@@H](C)CC)C(=O)N[C@@H](C)C(=O)N[C@@H](CCC(N)=O)C(=O)NC(C)(C)C(=O)N[C@@H](CCC(=O)O)C(=O)N[C@@](C)(Cc1ccccc1)C(=O)N[C@H](C(=O)N[C@H](CCC(=O)O)C(=O)N[C@@](C)(Cc1ccc(O)cc1)C(=O)N[C@@H](CC(C)C)C(=O)N[C@H](C(=O)N[C@@H](CCCCNC(=O)COCCOCCNC(=O)COCCOCCNC(=O)CC[C@H](NC(=O)CCCCCCCCCCCCC(=O)O)C(=O)O)C(=O)NCC(=O)NCC(=O)N1CCC[C@H]1C(=O)N[C@@H](CO)C(=O)N[C@@H](CO)C(=O)NCC(=O)N[C@@H](C)C(=O)N1CCC[C@H]1C(=O)N1CCC[C@H]1C(=O)N1CCC[C@H]1C(=O)N[C@@H](CO)C(N)=O)[C@@H](C)CC)[C@@H](C)CC [Example 111] (H-Y[Aib]EGT[αMePhe(2-F)]TSDK([AEEA-AEEA-γGlu-C14 diacid])SI[αMeL]LD[Orn]IAQ[Aib]E[αMeF]I[dE][αMeY]LIK([AEEA-AEEA-γGlu-C14 diacid])GGPSSGAPPPS-NH2; N-terminus assumed) | – | – | – | – | – | – | – | – | 76.1 | 0.0202 | > 9950 | 121
